Data published in BindingDB's records for doi:10.1021/acsmedchemlett.5b00489 (Peking Union Medical College, 2016).

Assay: Antagonist activity at human recombinant CXCR2 assessed as inhibition of CXCL1-induced neutrophil chemotaxis after 45 mins by calcein-AM dye based plate reader method

Row | IC50 [nM] | Structure (SMILES)
1 | 158 | CN1CCC(S(=O)(=O)c2c(Cl)ccc(NC(=O)Nc3cccc(Cl)c3Cl)c2O)CC1
2 | 25 | CN1CCC(S(=O)(=O)c2c(Cl)ccc(NC(=O)Nc3cccc(F)c3Cl)c2O)CC1
3 | 158 | CCN1CCC(S(=O)(=O)c2c(Cl)ccc(NC(=O)Nc3cccc(F)c3Cl)c2O)CC1
4 | 251 | CN1CC[C@H](S(=O)(=O)c2c(Cl)ccc(NC(=O)Nc3cccc(Cl)c3Cl)c2O)C1
5 | 316 | NS(=O)(=O)c1c(Cl)ccc(NC(=O)Nc2cccc(Cl)c2Cl)c1O
6 | 10000 | O=C(Nc1ccc(Cl)c(S(=O)(=O)N2CCNCC2)c1O)Nc1cccc(Cl)c1Cl
7 | 1000 | CN1CCN(S(=O)(=O)c2c(Cl)ccc(NC(=O)Nc3cccc(Cl)c3Cl)c2O)CC1
8 | 316 | CN1CCN(S(=O)(=O)c2c(Cl)ccc(NC(=O)Nc3cccc(F)c3Cl)c2O)CC1
9 | 2000 | CCN1CCN(S(=O)(=O)c2c(Cl)ccc(NC(=O)Nc3cccc(F)c3Cl)c2O)CC1
10 | 2000 | CC(C)N1CCN(S(=O)(=O)c2c(Cl)ccc(NC(=O)Nc3cccc(F)c3Cl)c2O)CC1
11 | 3160 | C[C@@H]1CN(S(=O)(=O)c2c(Cl)ccc(NC(=O)Nc3cccc(F)c3Cl)c2O)C[C@H](C)O1
12 | 15800 | C[C@@H]1CN(S(=O)(=O)c2c(Cl)ccc(NC(=O)Nc3cccc(Cl)c3Cl)c2O)C[C@H](C)O1
13 | 6310 | CCS(=O)(=O)c1c(Cl)ccc(NC(=O)Nc2cccc(Cl)c2Cl)c1O
14 | 10 | CC(C)S(=O)(=O)c1c(Cl)ccc(NC(=O)Nc2cccc(F)c2Cl)c1O
15 | 158 | CC(C)S(=O)(=O)c1c(Cl)ccc(NC(=O)Nc2cccc(Cl)c2Cl)c1O
16 | 40 | CC(C)(C)S(=O)(=O)c1c(Cl)ccc(NC(=O)Nc2cccc(F)c2Cl)c1O
17 | 13 | O=C(Nc1ccc(Cl)c(S(=O)(=O)C2CCC2)c1O)Nc1cccc(F)c1Cl
18 | 25 | O=C(Nc1ccc(Cl)c(S(=O)(=O)C2CCCC2)c1O)Nc1cccc(F)c1Cl
19 | 79 | O=C(Nc1ccc(Cl)c(S(=O)(=O)C2CCCCC2)c1O)Nc1cccc(F)c1Cl
20 | 7.9 | O=C(Nc1ccc(Cl)c(S(=O)(=O)C2CCOC2)c1O)Nc1cccc(Cl)c1Cl (configuration not stated)
21 | 6.3 | O=C(Nc1ccc(Cl)c(S(=O)(=O)C2CCOCC2)c1O)Nc1cccc(Cl)c1Cl
22 | 79 | CN1CC[C@H](S(=O)(=O)c2c(Cl)ccc(NC(=O)Nc3cccc(F)c3Cl)c2O)C1
23 | 100 | CN1CCC[C@H](S(=O)(=O)c2c(Cl)ccc(NC(=O)Nc3cccc(F)c3Cl)c2O)CC1
24 | 631 | CN1CC2(CC(S(=O)(=O)c3c(Cl)ccc(NC(=O)Nc4cccc(F)c4Cl)c3O)C2)C1
25 | 25 | CN1CCC2(CCC(S(=O)(=O)c3c(Cl)ccc(NC(=O)Nc4cccc(F)c4Cl)c3O)CC2)CC1
26 | 7.9 | O=C(Nc1ccc(Cl)c(C(=O)N2CCCC2)c1O)Nc1cccc(F)c1Cl
27 | 6.3 | O=C(Nc1ccc(Cl)c(C(=O)N2CCCCC2)c1O)Nc1cccc(F)c1Cl
